For 27 molecules, inhibition results are on record in patent US20060211698A1, “Bicyclic heteroaryl derivatives for treating viruses” (Genelabs, Inc., priority 2005, published 2006).

A word on the inhibition: it is the relative decrease from the control value, in per cent.

The target of this assay is T1, HCV-NS5b (Hepatitis C virus genotype 1b, UniProt Q9WMX2).
T1 construct: The cloned fragment was missing the C terminus 21 amino acid residues; (His)6 (C); made in house; host or cells: XL-1 cells (E. coli)
Briefly: HCV-NS5b Enzyme Assay. The format is biochemical. To be noted: 1 μM test compound; incorporation of [3H]-UTP, 37° C., 2 hours. In a few lines:
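The NS5B construct lacks its C-terminal 21 residues, carries a C-terminal His6 tag and was expressed in E. coli. [^3H]-UTP incorporation on a biotinylated HCV heteropolymeric template (10 ng/μL) with 10 μM each NTP, pH 7.5, 5 mM MgCl2 and 5% DMSO ran 2 h at 37° C and was read by SPA scintillation. IC50s came from 10-point 2-fold series starting at 50 or 2 μM.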
Regarding `O=C(O)c1ccc2c(C3CCCCC3)c(-c3ccc4nc(-c5ccccc5C(F)(F)F)ccc4c3)n(CC(=O)N3CCOCC3)c2c1` [Compound 267, 3-Cyclohexyl-1-(2-morpholin-4-yl-2-oxo-ethyl)-2-[2-(2-trifluoromethyl-phenyl)-quinolin-6-yl]-1H-indole-6-carboxylic acid], the inhibition at 1 µM was determined as 94.6%.
For `Cc1nccnc1-c1ccc2cc(-c3c(C4CCCCC4)c4ccc(C(=O)O)cc4n3CC(=O)N3CCOCC3)ccc2n1` [Compound 268, 3-Cyclohexyl-2-[2-(3-methyl-pyrazin-2-yl)-quinolin-6-yl]-1-(2-morpholin-4-yl-2-oxo-ethyl)-1H-indole-6-carboxylic acid], the inhibition at 1 µM was 96.1%.
For `CCOc1ncc(-c2ccc3cc(-c4c(C5CCCCC5)c5ccc(C(=O)O)cc5n4CC(=O)N4CCOCC4)ccc3n2)c(C)n1` [Compound 269, 3-Cyclohexyl-2-[2-(2-ethoxy-4-methyl-pyrimidin-5-yl)-quinolin-6-yl]-1-(2-morpholin-4-yl-2-oxo-ethyl)-1H-indole-6-carboxylic acid] the value was 93.6%; for `COc1ccc(F)c(-c2ccc3cc(-c4c(C5CCCCC5)c5ccc(C(=O)O)cc5n4CC(=O)N4CCOCC4)ccc3n2)c1` [Compound 270, 3-Cyclohexyl-2-[2-(2-fluoro-5-methoxy-phenyl)-quinolin-6-yl]-1-(2-morpholin-4-yl-2-oxo-ethyl)-1H-indole-6-carboxylic acid], 95%; for `Cn1cccc1-c1ccc2cc(-c3c(C4CCCCC4)c4ccc(C(=O)O)cc4n3CC(=O)N3CCOCC3)ccc2n1` [Compound 271, 3-Cyclohexyl-2-[2-(1-methyl-1H-pyrrol-2-yl)-quinolin-6-yl]-1-(2-morpholin-4-yl-2-oxo-ethyl)-1H-indole-6-carboxylic acid], 100%.
On to `COc1ccc(-c2ccc3cc(-c4c(C5CCCCC5)c5ccc(C(=O)O)cc5n4CC(=O)N4CCOCC4)ccc3n2)c(OC)c1OC` [Compound 272, 3-Cyclohexyl-1-(2-morpholin-4-yl-2-oxo-ethyl)-2-[2-(2,3,4-trimethoxy-phenyl)-quinolin-6-yl]-1H-indole-6-carboxylic acid], for which the inhibition at 1 µM was found to be 101%.
Turning to `COc1ccc(-c2ccc3cc(-c4c(C5CCCCC5)c5ccc(C(=O)O)cc5n4CC(=O)N4CCOCC4)ccc3n2)cc1F` [Compound 273, 3-Cyclohexyl-2-[2-(3-fluoro-4-methoxy-phenyl)-quinolin-6-yl]-1-(2-morpholin-4-yl-2-oxo-ethyl)-1H-indole-6-carboxylic acid], the inhibition at 1 µM is 99.4%.
On to `Cc1nc(C)c(-c2ccc3cc(-c4c(C5CCCCC5)c5ccc(C(=O)O)cc5n4CC(=O)N4CCC(N(C)C)CC4)ccc3n2)s1` [Compound 274, 3-Cyclohexyl-1-[2-(4-dimethylamino-piperidin-1-yl)-2-oxo-ethyl]-2-[2-(2,4-dimethyl-thiazol-5-yl)-quinolin-6-yl]-1H-indole-6-carboxylic acid], for which the inhibition at 1 µM turned out to be 96%.
For `CCN(CC)C1CCN(C(=O)Cn2c(-c3ccc4nc(-c5sc(C)nc5C)ccc4c3)c(C3CCCCC3)c3ccc(C(=O)O)cc32)CC1` [Compound 275, 3-Cyclohexyl-1-[2-(4-diethylamino-piperidin-1-yl)-2-oxo-ethyl]-2-[2-(2,4-dimethyl-thiazol-5-yl)-quinolin-6-yl]-1H-indole-6-carboxylic acid] the value was 98.9%; for `O=C(O)c1ccc2c(C3CCCCC3)c(-c3ccc4nc(-c5ccccc5Cl)ccc4c3)n(CC(=O)N3CCOCC3)c2c1` [Compound 276, 2-[2-(2-Chloro-phenyl)-quinolin-6-yl]-3-cyclohexyl-1-(2-morpholin-4-yl-2-oxo-ethyl)-1H-indole-6-carboxylic acid], 97.6%.
For `Cc1nc(C)c(-c2ccc3cc(-c4c(C5CCCCC5)c5ccc(C(=O)O)cc5n4CC(=O)N4CCCC4C)ccc3n2)s1` (stereo not drawn) [Compound 277, 3-Cyclohexyl-2-[2-(2,4-dimethyl-thiazol-5-yl)-quinolin-6-yl]-1-[2-(2-methyl-pyrrolidin-1-yl)-2-oxo-ethyl]-1H-indole-6-carboxylic acid] the value was 96.3%; for `Cc1nc(C)c(-c2ccc3cc(-c4c(C5CCCCC5)c5ccc(C(=O)O)cc5n4CC(=O)N4CCC(N5CCOCC5)CC4)ccc3n2)s1` [Compound 278, 3-Cyclohexyl-2-[2-(2,4-dimethyl-thiazol-5-yl)-quinolin-6-yl]-1-[2-(4-morpholin-4-yl-piperidin-1-yl)-2-oxo-ethyl]-1H-indole-6-carboxylic acid], 91.8%.
For `Cc1nc(C)c(-c2ccc3cc(-c4c(C5CCCCC5)c5ccc(C(=O)O)cc5n4CC(=O)N4C(C)COCC4C)ccc3n2)s1` (stereo not drawn) [Compound 279, 3-Cyclohexyl-1-[2-(3,5-dimethyl-morpholin-4-yl)-2-oxo-ethyl]-2-[2-(2,4-dimethyl-thiazol-5-yl)-quinolin-6-yl]-1H-indole-6-carboxylic acid] the value was 100%; for `Cc1nc(C)c(-c2ccc3cc(-c4c(C5CCCCC5)c5ccc(C(=O)O)cc5n4CC(=O)N4CCC(C)CC4)ccc3n2)s1` [Compound 280, 3-Cyclohexyl-2-[2-(2,4-dimethyl-thiazol-5-yl)-quinolin-6-yl]-1-[2-(4-methyl-piperidin-1-yl)-2-oxo-ethyl]-1H-indole-6-carboxylic acid], 97.7%; for `Cc1sc(-c2ccc3cc(-c4c(C5CCCCC5)c5ccc(C(=O)O)cc5n4CC(=O)N4CCOCC4)ccc3n2)c(C)[n+]1[O-]` [Compound 281, 3-Cyclohexyl-2-[2-(2,4-dimethyl-3-oxy-thiazol-5-yl)-quinolin-6-yl]-1-(2-morpholin-4-yl-2-oxo-ethyl)-1H-indole-6-carboxylic acid], 77.6%.
Consider `Cc1nc(C)c(-c2ccc3cc(-c4c(C5CCCCC5)c5ccc(C(=O)O)cc5n4CC(=O)N4CCOCC4)cc(Br)c3n2)s1` [Compound 282, 2-[8-Bromo-2-(2,4-dimethyl-thiazol-5-yl)-quinolin-6-yl]-3-cyclohexyl-1-(2-morpholin-4-yl-2-oxo-ethyl)-1H-indole-6-carboxylic acid], for which the inhibition at 1 µM came to 87.8%.
For `Cc1nc(C)c(-c2ccc3cc(-c4c(C5CCCCC5)c5ccc(C(=O)O)cc5n4CCCN(C)C)ccc3n2)s1` [Compound 286, 3-Cyclohexyl-1-(3-dimethylamino-propyl)-2-[2-(2,4-dimethyl-thiazol-5-yl)-quinolin-6-yl]-1H-indole-6-carboxylic acid] the value was 85.7%; for `Cc1nc(C)c(-c2ccc3cc(-c4c(C5CCCCC5)c5ccc(C(=O)O)cc5n4Cc4ccccc4)ccc3n2)s1` [Compound 287, 1-Benzyl-3-cyclohexyl-2-[2-(2,4-dimethyl-thiazol-5-yl)-quinolin-6-yl]-1H-indole-6-carboxylic acid], 95.2%; for `Cc1nc(C)c(-c2ccc3cc(-c4c(C5CCCCC5)c5ccc(C(=O)O)cc5n4Cc4ccncc4)ccc3n2)s1` [Compound 289, 3-Cyclohexyl-2-[2-(2,4-dimethyl-thiazol-5-yl)-quinolin-6-yl]-1-pyridin-4-ylmethyl-1H-indole-6-carboxylic acid], 95.7%.
For `Cc1nc(C)c(-c2ccc3cc(-c4c(C5CCCCC5)c5ccc(C(=O)O)cc5n4CCN4CCOCC4)ccc3n2)s1` [Compound 290, 3-Cyclohexyl-2-[2-(2,4-dimethyl-thiazol-5-yl)-quinolin-6-yl]-1-(2-morpholin-4-yl-ethyl)-1H-indole-6-carboxylic acid] the value was 79.1%; for `Cc1cc(Cn2c(-c3ccc4nc(-c5sc(C)nc5C)ccc4c3)c(C3CCCCC3)c3ccc(C(=O)O)cc32)no1` [Compound 291, 3-Cyclohexyl-2-[2-(2,4-dimethyl-thiazol-5-yl)-quinolin-6-yl]-1-(5-methyl-isoxazol-3-ylmethyl)-1H-indole-6-carboxylic acid], 96.4%; for `Cc1nc(C)c(-c2ccc3cc(-c4c(C5CCCCC5)c5ccc(C(=O)O)cc5n4Cc4ccc(C(=O)O)cc4)ccc3n2)s1` [Compound 292, 1-(4-Carboxy-benzyl)-3-cyclohexyl-2-[2-(2,4-dimethyl-thiazol-5-yl)-quinolin-6-yl]-1H-indole-6-carboxylic acid], 98.7%.
For `COc1cccc(Cn2c(-c3ccc4nc(-c5sc(C)nc5C)ccc4c3)c(C3CCCCC3)c3ccc(C(=O)O)cc32)c1` [Compound 293, 3-Cyclohexyl-2-[2-(2,4-dimethyl-thiazol-5-yl)-quinolin-6-yl]-1-(3-methoxy-benzyl)-1H-indole-6-carboxylic acid] the value was 69.2%; for `O=C(O)c1ccc2c(C3CCCCC3)c(-c3ccc(-c4ccc5cc(Br)ccc5n4)cc3)n(CC(=O)N3CCOCC3)c2c1` [Compound 298, 2-[4-(6-Bromo-quinolin-2-yl)-phenyl]-3-cyclohexyl-1-(2-morpholin-4-yl-2-oxo-ethyl)-1H-indole-6-carboxylic acid], 101%.
`CN(C)c1ccc(-c2ccc(-c3c(C4CCCCC4)c4ccc(C(=O)O)cc4n3CC(=O)N3CCOCC3)cc2)cc1` [Compound 299, 3-Cyclohexyl-2-(4′-dimethylamino-biphenyl-4-yl)-1-(2-morpholin-4-yl-2-oxo-ethyl)-1H-indole-6-carboxylic acid]: the inhibition at 1 µM came to 94.9%.
With `Cc1ccc(-c2ccc(-c3c(C4CCCCC4)c4ccc(C(=O)O)cc4n3CC(=O)N3CCOCC3)cc2)cc1` [Compound 300, 3-Cyclohexyl-2-(4′-methyl-biphenyl-4-yl)-1-(2-morpholin-4-yl-2-oxo-ethyl)-1H-indole-6-carboxylic acid], the inhibition at 1 µM amounted to 98.2%.
For `COc1ccc(-c2ccc(-c3c(C4CCCCC4)c4ccc(C(=O)O)cc4n3CC(=O)N3CCOCC3)cc2)cc1` [Compound 301, 3-Cyclohexyl-2-(4′-methoxy-biphenyl-4-yl)-1-(2-morpholin-4-yl-2-oxo-ethyl)-1H-indole-6-carboxylic acid] the value was 97%.
